# Results published in patent publication US7615639B2, “1-pyridyl-benzofuro[3,2-b]pyridin-2(1H)-ones” (Tibotec Pharmaceuticals, Ltd., priority 2004, dated 2009).
# Tested on: HIV
# Experiment: Cellular assay: anti-viral activity in HIV-infected MT4 cells (MTT read-out)
# Type: cell-based
# Settings: Human immunodeficiency virus 1, 120 h, five days incubation, MTT cell viability, negative logarithm of EC50 (protection of 50% of cells from cytopathogenic effect of the virus)
# Protocol: The compounds of the present invention were examined for anti-viral activity in a cellular assay, which was performed according to the following procedure.
# HIV- or mock-infected MT4 cells were incubated for five days in the presence of various concentrations of the inhibitor. At the end of the incubation period, the replicating virus in the control cultures has killed all HIV-infected cells in the absence of any inhibitor. Cell viability was determined by measuring the concentration of MTT, a yellow, water soluble tetrazolium dye that is converted to a purple, water insoluble formazan in the mitochondria of living cells only. Upon solubilization of the resulting formazan crystals with isopropanol, the absorbance of the solution was monitored at 540 nm. The values correlate directly to the number of living cells remaining in the culture at the completion of the five day incubation. The inhibitory activity of the compound was monitored on the virus-infected cells and was expressed as EC50 and EC90. These values represent the amount of the compound required to protect 50% and 90%, respectively, of the cells from the cytopathogenic effect of the virus. The toxicity of the compound was measured on the mock-infected cells and was expressed as CC50, which represents the concentration of compound required to inhibit the growth of the cells by 50%. The selectivity index (SI) (ratio CC50/EC50) is an indication of the selectivity of the anti-HIV activity of the inhibitor. Wherever results are reported as e.g. pEC50 or pCC50 values, the result is expressed as the negative logarithm of the result expressed as EC50 or CC50 respectively.
row,EC50,SMILES
1,0.794 µM,"Cn1c2ccccc2c2c1cc(C#N)c(=O)n2-c1ccc(Cl)nc1 [Compound 7, 1-(6-Chloropyridin-3-yl)-5-methyl-2-oxo-2,5-dihydro-1H-pyrido[3,2-b]indole-3-carbonitrile]"
2,10 µM,Cn1c2ccccc2c2c1cc(C#N)c(=O)n2-c1ccc(C#N)nc1 [Compound 14]
3,3.16 µM,Cn1c2ccccc2c2c1cc(C#N)c(=O)n2-c1ccc(Br)nc1 [Compound 28]
4,1 µM,"Cc1ccc(-n2c(=O)c(C#N)cc3c2c2ccccc2n3C)cn1 [Compound 32, 5-Methyl-1-(6-methyl-pyridin-3-yl)-2-oxo-2,5-dihydro-1H-pyrido[3,2-b]indole-3-carbonitrile]"
5,0.794 µM,"Cc1cc(-n2c(=O)c(C#N)cc3c2c2ccccc2n3C)cnc1Cl [Compound 34, 1-(6-Chloro-5-methyl-pyridin-3-yl)-5-methyl-2-oxo-2,5-dihydro-1H-pyrido[3,2-b]-indole-3-carbonitrile]"
6,3.16 µM,COc1ccc(-n2c(=O)c(C#N)cc3c2c2ccccc2n3C)cn1 [Compound 35]
7,7.94 µM,Cn1c2ccccc2c2c1cc(C#N)c(=O)n2-c1ccc(F)nc1 [Compound 36]

# The remaining lines, values behind:
row,SMILES,EC50
1,Cn1c2ccccc2c2c1ccc(=O)n2-c1cc2ccccc2s1 [Compound 6],12.6 µM
2,Cn1c2ccccc2c2c1cc(C#N)c(=O)n2-c1cnc2ccccc2c1 [Compound 9],2.51 µM
3,Cn1c2ccccc2c2c1cc(C#N)c(=O)n2-c1cncnc1 [Compound 11],20 µM
4,Cn1ccc2cc(-n3c(=O)ccc4c3c3ccccc3n4C)ccc21 [Compound 17],6.31 µM
5,N#Cc1cc2[nH]c3ccccc3c2n(-c2ccnc(Cl)c2)c1=O [Compound 19],15.8 µM
6,Cn1c2ccccc2c2c1cc(C#N)c(=O)n2-c1ccnc(C(N)=O)c1 [Compound 20],5.01 µM
7,Cn1c2ccccc2c2c1cc(C#N)c(=O)n2-c1ccc2nc(C(F)(F)F)cn2c1 [Compound 21],12.6 µM
8,N#Cc1cc2[nH]c3ccccc3c2n(-c2ccc(Cl)nc2)c1=O [Compound 26],2.51 µM
9,Cn1c2ccccc2c2c1ccc(=O)n2-c1cnc2ccccc2c1 [Compound 27],6.31 µM
10,COc1ncc(-n2c(=O)c(C#N)cc3c2c2ccccc2n3C)cn1 [Compound 37],2.51 µM
11,"Cn1c2ccc(O)cc2c2c1cc(C#N)c(=O)n2-c1ccc(Cl)nc1 [Compound 43, 1-(6-Chloro-pyridin-3-yl)-8-hydroxy-5-methyl-2-oxo-2,5-dihydro-1H-pyrido[3,2-b]-indole-3-carbonitrile]",3.98 µM
